Measured values from patent publication US20130338383A1, “PREGNANOLONE DERIVATIVES SUBSTITUTED IN 3ALPHA-POSITION WITH THE CATIONIC GROUP, METHOD OF THEIR PRODUCTION, USAGE AND PHARMACEUTICAL PREPARATION INVOLVING THEM” (FYZIOLOGICKY USTAV AKADEMIE VED CESKE REPUBLICKY, V.V.I., priority 2011, published 2013).
Like-named read-outs stand apart in the source and are kept apart here.

Tests used:
NR1/NR2B NMDA receptors [1] = molecular target: T1, NR1/NR2B NMDA receptors (Rattus norvegicus, UniProt P35439+Q00960); assay: Patch-clamp inhibition of glutamate-elicited currents in HEK293 cells transfected with NR1-1a/NR2B; type: cell-based; settings: for IC50: calculated from relative inhibition with Hill's coefficient 1.2; for IC50 / Relative inhibition effect (%): 5 cells; for Relative inhibition effect (%): 1 mmol·l^−1 glutamic acid
T1 construct: expressed in transfected cells; host or cells: HEK293 cells (ATCC CRL1573)
Method: The membrane potentials were maintained at −60 mV or +60 mV. Patch-clamp technique was used to record the currents from cultivated HEK293 cells with transfected NR1/NR2B NMDA receptors. Relative inhibition elicited by the compound from the example 2 was calculated from the formula (1−a/b)*100(%).
Degree of activated NMDA receptor inhibition by steroid cationic compounds was measured in vitro electrophysiologically on cultivated HEK293 cells (Human Embryonic Kidney 293 cells) 24-48 h after the transfection with DNA plasmids, coding NR1-1a and NR2B subunit of NMDA receptor. Transfected cells were identified by means of fluorescent green protein (GFP) fluorescence. Its genus was transfected together with the both receptor subunit genes.
Steroid-containing solutions were prepared from fresh solution (20 mmol·l^−1, of steroid dissolved in dimethyl-sulfoxide, DMSO), which was added to the extracellular solution containing 1 mmol·l^−1 glutamic acid and 10 μmol·l^−1 of glycine. Same concentrations of DMSO were added to all other extracellular solutions.
Current responses produced by extracellular application of glutamic acid solution (1 mmol·l^−1) were measured from the whole cell by patch-clamp technique, which is used for the study of transport of charged particles through model and also natural biological membranes. The currents were measured at membrane potential maintained at −60 mV and +60 mV.
HEK293 cells (American Type Culture Collection, ATTC No. CRL1573, Rockville, Md.) were cultivated in Opti-MEM® I media (Invitrogen) with addition of 5% fetal bovine serum at 37° C. and transfected with NR1-1a/NR2B/GFP plasmids, as described in the scientific literature (Cais et al., 2008). Same amounts (0.3 μg) of cDNA coding NR1, NR2 and GFP (green fluorescent protein) (pQBI 25, Takara, Japan) were mixed with 0.9 μl of Matra-A Reagent (IBA, Göttingen, Germany) and added to confluent HEK293 cells cultivated in v 24-pit cultivating plate. After trypsination, the cells were re-suspended in Opti-MEM® I containing 1% fetal bovine serum. Subsequently, 20 mmol·l^−1 MgCl2, 1 mmol D,L-2-amino-5-phosphonopentanoic acid, 3 mmol·l^−1 kynurenic acid was added to the mixture and cells were inoculated on the polylysine-coated glass plates having 25 mm in diameter. The following genes coding NMDA receptor subunits were used for transfection: NR1-1a (GenBank accession no. U08261) and NR2B (GenBank accession no. M91562).
HEK293 Cultured cells were used for electrophysiological investigations with a latency of 16-40 h after transfection. Whole-cell currents were measured by patch-clamp amplifier (Axopatch 1D; Axon Instruments, Inc. Foster City, USA) after capacitance and serial resistance (<10 MΩ) compensation to 80-90%. Agonist-induced responses were filtered to 1 kHz (8-pole Bessel filter; Frequency Devices, Haverhill, USA), digitized with sampling frequency of 5 kHz and analyzed by pClamp version 9 software (Axon Instruments, USA). Micropipettes made of borosilicate glass were filled with intracellular solution, containing 125 mmol·l^−1 D-glukonic acid, 15 mmol·l^−1 cesium chloride, 5 mmol·l^−1 EGTA, 10 mmol·l^−1 HEPES buffer, 3 mmol·l^−1 magnesium chloride, 0.5 mmol·l^−1 calcium chloride and 2 mmol·l^−1 magnesium-salt of ATP (pH adjusted to 7.2 by cesium hydroxide solution). Extracellular solution (ECS) contained 160 mmol·l^−1 sodium chloride, 2.5 mmol·l^−1 potassium chloride, 10 mmol·l^−1 HEPES, 10 mmol·l^−1 glucose, 0.2 mmol·l^−1 EDTA a 0.7 mmol·l^−1 calcium chloride (pH adjusted to 7.3 by sodium hydroxide solution). Glycine was added to both testing and control solution.

Long-Evans male rats = assay: Carousel maze (active allothetic place avoidance, AAPA): locomotion and cognitive function; type: in vivo
Method: Effect of pregnanolone argininate and nitrate and action of dizocilpine (a non-competitive antagonist of NMDA receptors; standardly used as positive control and referred hereafter as dizocilpine) on the behavior of rats in Carousel maze (active allothetic place avoidance (AAPA)), a spatial task requiring spatial orientation and cognitive functions
The effect of compounds on cognitive behaviors and locomotion was assessed using Carousel maze (active allothetic place avoidance (AAPA) task), which requires intact hippocampi and ability of animals to navigate in space using distinct reference frames (spatial navigation and “cognitive coordination”) (Wesierska et al., 2005) and it also allows measuring changes in the accompanying locomotor activity. AAPA task training involves animals trained to move over a slowly rotating uniform circular arena, on which a prohibited sector is defined, entering which is punished by a mild footshock. A shock sector and its position can be determined solely by its relationship to distal orienting cues in the room (Stuchlik et al., 2008).
This task is highly dependent upon hippocampal formation, with unilateral reversible ablation of this structure with TTX leading to avoidance deficit (Cimadevilla et al., 2001). Animals solving this task should walk in a direction opposite to arena rotation; otherwise it would be repeatedly brought to a fixed sector by arena rotation. We conducted 4 acquisition session of AAPA task, during which the sector location was always reinforced and remained stable throughout the training. Each session lasted 20 min.
The effect was tested on 2-month-old Long-Evans male rats. Control animals obtained cyklodextrine (s.c.), experimental groups received subcutaneous (s.c.) injections of the compound from example 2 at doses 1 mg/kg (dissolved in cyclodextrin). Intraperitonal application of dizocilpine (a non-competitive NMDA receptor antagonist; showing significant neuroprotective activity but exerting cognition-disturbing and psychotomimetic effects) was used as a positive control. Dizocilpine was applied at doses 0.15 mg/kg. It is worth noting that dizocilpine (albeit its experimental neuroprotective activity) is often used to model schizophrenia-like behaviors in […] and it has been repeatedly shown to exert a dose-dependent learning deficit and hyperlocomotion.
Locomotor activity of animals was assessed in the AAPA as total distance traveled in the coordinate frame of the arena (without passive rotation) in each 20-min session.
Another parameter, which can be measured and which brings a spatial aspect to behavioral analysis, is number of entrances into prohibited sector (occasionally termed “number of errors”).

NR1/NR2B NMDA receptors [2] = molecular target: T1, NR1/NR2B NMDA receptors; settings: pregnanolone sulfate 100 μmol·l^−1, recombinant NR1/NR2B receptors, n=5, Petrovic et al., 2005, cited from earlier work
[3] = test system: NMDA receptors on hipocampal neurones; settings: pregnanolone sulfate 100 μmol·l^−1; responses elicited by NMDA; −60 mV; n=5; Petrovic et al., 2005; cited from earlier work
male mice strain B6 = assay: Anesthetic effect after i.p. injection; type: in vivo; settings: 100 mg/kg i.p. in β-cyclodextrine
Method: Anesthetic effect of 3α5β pregnanolon argininate was tested on 2-month-old male mice strain B6. Animals were randomly assigned to 3 groups per 7 animals each. The first group was injected i.p. with saline, the second group received i.p. cyclodextrine, the third group obtained received the pregnanolon argininate at a dose 100 mg/kg (dissolved in β-cyclodextrine).

mice strain B6 = assay: Spontaneous locomotor activity in the open-field test; type: in vivo; settings: 10 mg/kg subcutaneously in cyclodextrin, 60 min session
Method: Animals were tracked with iTrack (Biosignal group, USA) and total path during this session was evaluated. The pregnanolone argininate was applied subcutaneously (dissolved in cyclodextrin) prior to behavioral observations at doses 10 mg/kg; control animals were injected with saline and cyclodextrin.

[4] = dizocilpine 0.15 mg/kg intraperitoneal, positive control

T1 sequence (Q00960 27-1482, other chains not shown): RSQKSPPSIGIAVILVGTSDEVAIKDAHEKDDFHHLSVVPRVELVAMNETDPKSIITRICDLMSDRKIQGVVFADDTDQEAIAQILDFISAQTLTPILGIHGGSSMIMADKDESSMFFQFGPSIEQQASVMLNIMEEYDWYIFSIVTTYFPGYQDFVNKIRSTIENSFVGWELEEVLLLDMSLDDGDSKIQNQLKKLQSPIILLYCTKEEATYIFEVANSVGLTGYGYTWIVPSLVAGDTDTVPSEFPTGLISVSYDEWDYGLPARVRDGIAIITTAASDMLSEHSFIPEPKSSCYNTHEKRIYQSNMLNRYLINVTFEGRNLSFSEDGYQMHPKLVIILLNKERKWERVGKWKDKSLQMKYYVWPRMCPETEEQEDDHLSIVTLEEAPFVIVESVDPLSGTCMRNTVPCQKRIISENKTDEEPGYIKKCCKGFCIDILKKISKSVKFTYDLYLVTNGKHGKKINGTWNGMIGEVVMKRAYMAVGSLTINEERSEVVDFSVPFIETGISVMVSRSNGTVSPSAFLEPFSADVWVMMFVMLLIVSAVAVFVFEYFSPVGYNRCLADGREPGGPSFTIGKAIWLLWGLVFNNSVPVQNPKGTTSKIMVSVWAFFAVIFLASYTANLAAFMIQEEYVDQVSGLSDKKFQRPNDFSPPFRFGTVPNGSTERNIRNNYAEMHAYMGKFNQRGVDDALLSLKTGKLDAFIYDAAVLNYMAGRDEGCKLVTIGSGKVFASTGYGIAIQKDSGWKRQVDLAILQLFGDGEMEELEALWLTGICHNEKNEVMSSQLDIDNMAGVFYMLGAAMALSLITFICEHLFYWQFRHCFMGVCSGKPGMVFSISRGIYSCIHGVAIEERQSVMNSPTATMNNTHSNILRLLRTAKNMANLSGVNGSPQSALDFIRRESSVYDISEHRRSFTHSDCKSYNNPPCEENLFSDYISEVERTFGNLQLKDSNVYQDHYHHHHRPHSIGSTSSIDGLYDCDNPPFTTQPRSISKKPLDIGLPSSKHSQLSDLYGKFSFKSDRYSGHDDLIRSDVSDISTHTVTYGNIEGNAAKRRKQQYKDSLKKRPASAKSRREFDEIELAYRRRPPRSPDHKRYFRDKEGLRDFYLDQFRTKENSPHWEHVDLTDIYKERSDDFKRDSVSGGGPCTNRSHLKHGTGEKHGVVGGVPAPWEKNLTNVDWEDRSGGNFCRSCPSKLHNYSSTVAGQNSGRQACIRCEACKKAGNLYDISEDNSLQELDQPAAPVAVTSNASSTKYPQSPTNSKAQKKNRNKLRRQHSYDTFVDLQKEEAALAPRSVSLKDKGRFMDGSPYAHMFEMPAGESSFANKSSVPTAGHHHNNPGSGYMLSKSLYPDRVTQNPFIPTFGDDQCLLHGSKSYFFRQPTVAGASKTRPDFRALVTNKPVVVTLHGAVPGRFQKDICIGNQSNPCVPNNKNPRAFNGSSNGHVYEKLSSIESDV

With `CCC(CCC(=O)O[C@@H]1CC[C@@]2(C)[C@H](CC[C@@H]3[C@@H]2CC[C@]2(C)[C@@H](C(C)=O)CC[C@@H]32)C1)[N+](C)(C)C.[Cl-]` (stereo partly drawn) [Example 7, 20-Oxo-5β-pregnan-3α-yl 4-(trimethylammonium) hexanoate chloride] as the compound, how does the IC50 (NR1/NR2B NMDA receptors [1]) read?
The IC50 was 23.6 µM.

What about the “Relative inhibition effect (%)” value (NR1/NR2B NMDA receptors [1]; steroid 100 μmol·l^−1, −60 mV) of the same compound?
The value was 85.6 +/− 2.3%.

For `CC(=O)[C@H]1CC[C@H]2[C@@H]3CC[C@@H]4C[C@H](OC(=O)CN(C)C(=N)N)CC[C@]4(C)[C@H]3CC[C@]12C.Cl` [Example 5, 20-Oxo-5β-pregnan-3α-yl 2-(methylguanidino) acetate hydrochloride], which IC50 (NR1/NR2B NMDA receptors [1]) is on record?
Its IC50 is 3.3 ± 0.7 µM.

What about the “Relative inhibition effect (%)” value (NR1/NR2B NMDA receptors [1]; steroid 10 μmol·l^−1) of the same compound?
Its value is 79.2 ± 4.2%.

With `CC(=O)C1CCC2C3CC[C@@H]4C[C@H]([N+](C)(C)C)CC[C@]4(C)C3CC[C@]12C.[Cl-]` (stereo partly drawn) [Example 10, 3-(Trimethylammonium)-5β-pregnan-20-one chloride] as the compound, how does the IC50 (NR1/NR2B NMDA receptors [1]) read?
Its IC50 is 107 µM.

What about the “Relative inhibition effect (%)” value (NR1/NR2B NMDA receptors [1]; steroid 100 μmol·l^−1, −60 mV) of the same compound?
The value was 69.2 ± 9.6%.

And the melting point?
The melting point was 237 to 240 °C (dec.).

Which results are given for `C[C@]12N[C@H](Cc3ccccc31)c1ccccc12` [dizocilpine, reference compound]?
locomotor activity: total distance per session in AAPA (Long-Evans male rats; [4]): stimulated the locomotor activity; number of entrances into shock sector (spatial cognition) (Long-Evans male rats; [4]): dose-dependently disrupted; number of entrances into shock sector (spatial cognition) (Long-Evans male rats; dizocilpine 0.15 mg/kg intraperitoneal, positive control, listed as MK-801): disrupts

Which results are given for `CC(=O)[C@H]1CC[C@H]2[C@@H]3CC[C@@H]4C[C@H](OC(=O)CCC[N+](C)(C)C)CC[C@]4(C)[C@H]3CC[C@]12C.[Cl-]` [Example 6, 20-Oxo-5β-pregnan-3α-yl 4-(trimethylammonium) butanoate chloride]?
IC50 (NR1/NR2B NMDA receptors [1]): 5.9 µM; Relative inhibition effect (%) (NR1/NR2B NMDA receptors [1]; steroid 10 μmol·l^−1): 65.4 ± 3.4%

What does the source list for `CC(=O)[C@H]1CC[C@H]2[C@@H]3CC[C@@H]4C[C@H](OC(=O)C[N+](C)(C)C)CC[C@]4(C)[C@H]3CC[C@]12C.[Cl-]` [Example 8, 20-Oxo-5β-pregnan-3α-yl-2-(trimethylammonium) acetate hydrochloride]?
IC50 (NR1/NR2B NMDA receptors [1]): 22.4 µM; Relative inhibition effect (%) (NR1/NR2B NMDA receptors [1]; steroid 30 μmol·l^−1, −60 mV): 57.0 ± 9.6%

Which “Relative inhibition effect (%)” value (NR1/NR2B NMDA receptors [2]; listed as 5β-pregnanolon-3α-yl-sulfate) does the source give for “5β-pregnanolon-3α-yl-sulfate [Pregnanolone sulfate]” here?
Its value is 67%.

And the “Relative inhibition effect (%)” value (NR1/NR2B NMDA receptors [2]; listed as pregnanolone sulfate)?
The value was 67.2±8.2%.

What about the mean inhibition effect [3] of the same compound?
The mean inhibition effect was 71.3±5.0%.

What about the IC50 (NR1/NR2B NMDA receptors [1]) of the same compound?
Its IC50 is 55 µM.

Which “time after injection to anesthesia” value (male mice strain B6) does the source give for `CC(=O)O.CC(=O)O.CC(=O)[C@H]1CC[C@H]2[C@@H]3CC[C@@H]4C[C@H](OC(=O)[C@@H](N)CCCNC(=N)N)CC[C@]4(C)[C@H]3CC[C@]12C` [Example 2, 20-Oxo-5β-pregnan-3α-yl L-argininate diacetate salt] here?
Its value is 5 to 20 min.

And the “time after injection to decreased locomotor activity” value (male mice strain B6)?
The value was 3 to 15 min.

And the “time to spontaneous awakening” value (male mice strain B6)?
Its value is 1 to 3 h.

And the “locomotor activity: total distance per session in AAPA” value (Long-Evans male rats; compound from example 2 1 mg/kg s.c. in cyclodextrin (nitrate dose not given), 20-min session, vs cyclodextrin controls, diacetate salt, 1 mg/kg)?
The value was “no significant effect”.

What about the “locomotor activity: total distance per session in AAPA” value (Long-Evans male rats; compound from example 2 1 mg/kg s.c. in cyclodextrin (nitrate dose not given), 20-min session, vs cyclodextrin controls, listed as pregnanolone argininate, diacetate salt, 1 mg/kg) of the same compound?
The value was “failed to exhibit either decrease or increase”.

And the “number of entrances into shock sector (spatial cognition)” value (Long-Evans male rats; compound from example 2 1 mg/kg s.c. in cyclodextrin (nitrate dose not given), vs cyclodextrin controls, diacetate salt, 1 mg/kg)?
Its value is “no significant effect”.

What about the “number of entrances into shock sector (spatial cognition)” value (Long-Evans male rats; compound from example 2 1 mg/kg s.c. in cyclodextrin (nitrate dose not given), vs cyclodextrin controls, listed as pregnanolone argininate, diacetate salt, 1 mg/kg) of the same compound?
The value was “do not caused worsening”.

And the “dependence of average inhibition on the maintained membrane potential” value (NR1/NR2B NMDA receptors [1]; 10 μmol·l^−1, FIG. 1B)?
Its value is “independence”.

And the “reversibility of inhibition of the current response” value (NR1/NR2B NMDA receptors [1]; 10 μmol·l^−1 applied simultaneously with 1 mmol·l^−1 glutamic acid, −60 mV or +60 mV, FIG. 1A)?
Its value is “reversible inhibition”.

What about the IC50 (NR1/NR2B NMDA receptors [1]) of the same compound?
The IC50 was 5.3 µM.

And the “Relative inhibition effect (%)” value (NR1/NR2B NMDA receptors [1]; steroid 10 μmol·l^−1)?
The value was 69.2 ± 9.6%.

And the “spontaneous locomotor activity (total path)” value (mice strain B6)?
The value was “did not significantly alter”.
